Tests used:
[1] = system: E. cloacae expressing the Class C P99; assay: Broth microdilution MIC assay with ceftazidime, E. cloacae P99; assay type: cell-based; conditions: Fixed CAZ (ceftazidime) 4 μg/mL; E. cl. 144200 p99 AmpC
Summary of the method: (§1)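 Test compounds in 2-fold dilutions (16 to 0.125 μg/mL final) in CAMHB were combined with a β-lactam at a static 4 μg/ml final. Plates were inoculated per CLSI broth microdilution with the β-lactamase-producing strain (pre-grown 3-5 h) and incubated 16-20 h at 37° C. MIC of test compound was read visually.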

[2] = system: P. aeruginosa expressing the Class B carbapenemase VIM-2; assay: Broth microdilution MIC assay with meropenem, P. aeruginosa VIM-2; assay type: cell-based; conditions: Fixed Mero (meropenem) 4 μg/mL; P. aerug. 2775 VIM-2
Summary of the method: as §1

[3] = system: K. pneumoniae producing the Class D carbapenemase OXA-48; assay: Broth microdilution MIC assay with meropenem, K. pneumoniae OXA-48; assay type: cell-based; conditions: Fixed Mero (meropenem) 4 μg/mL; K. p. 11978 OXA-48
Summary of the method: as §1

OXA-48 = OXA-48 (UniProt Q6XEC0); assay: β-lactamase enzyme inhibition assay, Class D oxacillinase; assay type: biochemical; conditions: read-out: OXA-48
[4] = system: K. pneumoniae expressing the Class A carbapenemase KPC-2; assay: Broth microdilution MIC assay with meropenem, K. pneumoniae KPC-2; assay type: cell-based; conditions: Fixed Mero (meropenem) 4 μg/mL; K. p. 156319 KPC-3
Summary of the method: as §1

[5] = system: E. coli expressing the Class A Extended Spectrum Beta-Lactamase (ESBL) CTX-M-15; assay: Broth microdilution MIC assay with ceftazidime, E. coli CTX-M-15; assay type: cell-based; conditions: Fixed CAZ (ceftazidime) 4 μg/mL; E. coli ESBL4 CTX-M-15
Summary of the method: as §1

SHV-5 = target: T1, SHV-5 (Klebsiella pneumoniae, UniProt P0A3M1); assay: β-lactamase enzyme inhibition assay, SHV-5 (cefotaxime substrate); assay type: biochemical
T1 construct: made in house; host or cells: E. coli BL21(DE3)
T1 sequence (P0A3M1 22-286): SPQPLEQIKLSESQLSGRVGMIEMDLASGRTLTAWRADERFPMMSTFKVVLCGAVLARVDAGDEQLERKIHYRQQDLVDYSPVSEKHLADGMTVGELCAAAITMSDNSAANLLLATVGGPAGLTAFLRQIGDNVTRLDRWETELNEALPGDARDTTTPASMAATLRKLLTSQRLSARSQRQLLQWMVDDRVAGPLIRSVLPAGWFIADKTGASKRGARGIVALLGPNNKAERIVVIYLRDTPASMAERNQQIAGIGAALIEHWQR
Summary of the method: (§2)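 Read-out is the rate of β-lactam ring hydrolysis monitored by absorbance: 300 nm for imipenem with KPC-2 and 260 nm for cefotaxime with SHV-5. Recombinant native enzymes were first incubated with compound at 37 °C for 15 min. The IC50 is the inhibitor concentration that halves the initial hydrolysis rate.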

AmpC = target: T2, AmpC (Enterobacter cloacae, UniProt P05364); assay: β-lactamase enzyme inhibition assay, p99 AmpC (nitrocefin substrate); assay type: biochemical
T2 construct: made in house; host or cells: E. coli BL21(DE3)
T2 sequence (P05364 21-381): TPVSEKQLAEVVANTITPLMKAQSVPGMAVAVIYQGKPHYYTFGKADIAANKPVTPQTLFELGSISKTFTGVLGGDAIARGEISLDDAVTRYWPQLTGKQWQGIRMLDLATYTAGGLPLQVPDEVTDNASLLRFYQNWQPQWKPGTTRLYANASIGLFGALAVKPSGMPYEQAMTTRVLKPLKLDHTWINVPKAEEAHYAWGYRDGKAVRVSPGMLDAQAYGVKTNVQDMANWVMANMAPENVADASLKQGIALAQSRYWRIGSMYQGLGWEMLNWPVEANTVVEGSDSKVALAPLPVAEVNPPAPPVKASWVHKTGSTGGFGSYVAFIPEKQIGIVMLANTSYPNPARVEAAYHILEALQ
Summary of the method: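 Read-out is the rate of β-lactam ring hydrolysis monitored by absorbance. Recombinant native enzymes were first incubated with compound at 37 °C for 15 min. The IC50 is the inhibitor concentration that halves the initial hydrolysis rate.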

KPC-2 = target: T3, KPC-2 (Klebsiella pneumoniae, UniProt Q9F663); assay: β-lactamase enzyme inhibition assay, KPC-2 (imipenem substrate); assay type: biochemical; conditions: Class A; imipenem substrate, 300 nm; read-out: KPC-2
T3 construct: made in house; host or cells: E. coli BL21(DE3)
T3 sequence (Q9F663 25-293, looked up): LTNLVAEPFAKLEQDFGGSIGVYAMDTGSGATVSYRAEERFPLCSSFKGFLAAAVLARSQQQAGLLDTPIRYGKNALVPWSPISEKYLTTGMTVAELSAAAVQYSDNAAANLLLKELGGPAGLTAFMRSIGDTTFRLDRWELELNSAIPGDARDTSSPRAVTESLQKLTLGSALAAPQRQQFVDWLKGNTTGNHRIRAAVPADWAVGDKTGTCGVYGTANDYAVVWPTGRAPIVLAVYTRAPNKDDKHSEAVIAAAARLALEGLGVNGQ
Summary of the method: as §2

VIM-2 = target: T4, VIM-2 (Escherichia coli, UniProt Q5U7L7); assay: β-lactamase enzyme inhibition assay, VIM-2 (nitrocefin substrate); assay type: biochemical; conditions: Class B; nitrocefin substrate, 486 nm; read-out: VIM-2
T4 construct: made in house; host or cells: E. coli BL21(DE3)
Summary of the method: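 Purified VIM-2 preincubated with inhibitor for 15 min at 37° C, then nitrocefin (100 μM final) added and absorbance at 486 nm followed for 10 min. Maximum hydrolysis rates compared with inhibitor-free controls; IC50 fitted from percent inhibition across inhibitor concentrations.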

[6] = system: K. pneumoniae expressing the class A carbapenemase KPC-2 and the class B carbapenemase VIM-4; assay: Broth microdilution MIC assay with meropenem, K. pneumoniae KPC-2 and VIM-4; assay type: cell-based; conditions: Fixed Mero (meropenem) 4 μg/mL; K. p. A-1797 KPC-2 VIM-4
Summary of the method: as §1

SMILES | MIC (μg/mL) of Exemplary Compounds in presence of fixed β-lactams: E. cl. 144200 p99 AmpC [1] | MIC (μg/mL) of Exemplary Compounds in presence of fixed β-lactams: P. aerug. 2775 VIM-2 [2] | MIC (μg/mL) of Exemplary Compounds in presence of fixed β-lactams: K. p. 11978 OXA-48 [3] | IC50 (OXA-48) [nM] | MIC (μg/mL) of Exemplary Compounds in presence of fixed β-lactams: K. p. 156319 KPC-3 [4] | MIC (μg/mL) of Exemplary Compounds in presence of fixed β-lactams: E. coli ESBL4 CTX-M-15 [5] | IC50 (SHV-5) [nM] | IC50 (AmpC) [nM] | IC50 (KPC-2) [nM] | IC50 (VIM-2) [nM] | MIC (μg/mL) of Exemplary Compounds in presence of fixed β-lactams: K. p. A-1797 KPC-2 VIM-4 [6]
O=C(Cc1nnn(CC2CCNCC2)n1)N[C@H]1Cc2cccc(C(=O)O)c2OB1O [Example 99, (R)-2-hydroxy-3-(2-(2-(piperidin-4-ylmethyl)-2H-tetrazol-5-yl)acetamido)-3,4-dihydro-2H-benzo[e][1,2]oxaborinine-8-carboxylic acid] | C (C represents an MIC of <1 μg/mL) | C (C represents an MIC of <1 μg/mL) | B (B represents an MIC between 1 and 16 μg/mL inclusive) | 100 to 1000 | C (C represents an MIC of <1 μg/mL) | C (C represents an MIC of <1 μg/mL) | < 100 | < 100 | < 100 | 100 to 1000 | B (B represents an MIC between 1 and 16 μg/mL inclusive)
CC(C)NCc1cn(CC(=O)N[C@H]2Cc3cccc(C(=O)O)c3OB2O)nn1 [Example 4, (R)-2-hydroxy-3-(2-(4-((isopropylamino)methyl)-1H-1,2,3-triazol-1-yl)acetamido)-3,4-dihydro-2H-benzo[e][1,2]oxaborinine-8-carboxylic acid] | C (C represents an MIC of <1 μg/mL) | C (C represents an MIC of <1 μg/mL) | B (B represents an MIC between 1 and 16 μg/mL inclusive) | < 100 | B (B represents an MIC between 1 and 16 μg/mL inclusive) | C (C represents an MIC of <1 μg/mL) | 100 to 1000 | < 100 | 100 to 1000 | < 100 | C (C represents an MIC of <1 μg/mL)
NCCCn1nnnc1CC(=O)N[C@H]1Cc2cccc(C(=O)O)c2OB1O [Example 50, (R)-3-(2-(1-(3-aminopropyl)-1H-tetrazol-5-yl)acetamido)-2-hydroxy-3,4-dihydro-2H-benzo[e][1,2]oxaborinine-8-carboxylic acid] | C (C represents an MIC of <1 μg/mL) | C (C represents an MIC of <1 μg/mL) | B (B represents an MIC between 1 and 16 μg/mL inclusive) | 1000 to 10000 | C (C represents an MIC of <1 μg/mL) | C (C represents an MIC of <1 μg/mL) | < 100 | < 100 | < 100 | < 100 | C (C represents an MIC of <1 μg/mL)
NCC(=O)NCc1cn(CC(=O)N[C@H]2Cc3cccc(C(=O)O)c3OB2O)nn1 [Example 76, (R)-3-(2-(4-((2-aminoacetamido)methyl)-1H-1,2,3-triazol-1-yl)acetamido)-2-hydroxy-3,4-dihydro-2H-benzo[e][1,2]oxaborinine-8-carboxylic acid] | C (C represents an MIC of <1 μg/mL) | C (C represents an MIC of <1 μg/mL) | B (B represents an MIC between 1 and 16 μg/mL inclusive) | 100 to 1000 | C (C represents an MIC of <1 μg/mL) | C (C represents an MIC of <1 μg/mL) | < 100 | < 100 | 100 to 1000 | < 100 | B (B represents an MIC between 1 and 16 μg/mL inclusive)
